Results published in patent publication US20110189174A1, “COMPOSITIONS AND METHODS FOR TREATING, REDUCING, AMELIORATING, ALLEVIATING, OR INHIBITING PROGRESSION OF, PATHOGENIC OCULAR NEOVASCULARIZATION” (priority 2010, published 2011).
Several values for one entry are separate records, joined by “and”; a condition that tells them apart may be missing. Equal entries are not always repeated. Entries after “also recorded” stand apart in the source; their conditions may differ. Marks after values point to notes of the source that are not given here.

Legend:
[1] = test system: laser-induced CNV in rats; assay: Laser-induced choroidal neovascularization in rats (CNV area, fluorescein angiography grades); format: in vivo, Brown Norway rats; conditions: day 14, 200 μg/eye (echistatin 5 μg, Avastin 125 μg); for CNV area / development of CNV on isolectin IB4-labeled flat mounts compared to vehicle-treated controls / Mean score of fluorescein leakage (FA score) compared to vehicle-treated controls: one intravitreal injection after laser; for Number of lesions in FA grade 1 / Number of lesions in FA grade 2 / Number of lesions in FA grade 3 / Number of lesions in FA grade 4: unobstructed lesions
Method: Fifty six male Brown Norway rats, approximately 200-300 grams of body weight and two months of age, were used in this study. This study was performed in two cohorts and only one eye of each rat was used.
The pupils were dilated and then the rats were anesthetized as described in baseline examination. The rats were positioned in front of a slit lamp system (Haag-Streit USA, Mason, Ohio). […] A diode laser (OcuLight TX, IRIDEX, Mountain View, Calif.) was used for photocoagulation (532 nm wavelength, 120 mW power, 50 μm spot size and 0.05 seconds duration). For each right eye, a series of six photocoagulation sites were concentrically placed between the major retinal vessels at equal distance (about two optic discs) around the optic nerve head. […] If a significant retinal or subretinal hemorrhage occurred during the laser photocoagulation, then the left eye was be photocoagulated and used as the experimental eye.
Grade 1 lesions had no hyperfluorescence.
The eyes were collected on day 14 and immediately fixed in 4% paraformaldehyde in PBS (pH 7.4) for one and half hours, and then transferred into cold PBS and kept at 4° C. for further processing.
The incubation was performed in a humidified dark chamber with gentle rotation at 4° C. overnight. On the second day, the retinal pigment epithelium (RPE)-choroidsclera complexes were washed with cold IHC buffer, mounted with ProLong® Gold antifade reagent, covered with circular cover glass, and sealed with clear nail polish. Fluorescent images were collected with a confocal microscope (FluoView FV 1000 confocal microscope, Olympus, Center Valley, Pa.) and a 4×, 0.16 numerical aperture objective lens. […] The laser sites were identified by merging images of the green (phalloidin labeling RPE) and the red (isolectin IB4 labeling CNV) channels. CNV complexes were identified using the red channel (isolectin), and their areas were quantified using the FluoView software (Version 1.7a).
Average FA scores and areas of CNV complexes in each group were presented as mean±SEM, unless otherwise indicated. They were analyzed using a one-way ANOVA followed by a Tukey-Kramer test after Box-Cox transformations. All statistics were performed utilizing the statistical analysis software JMP (SAS Institute, Cary, N.C.). p values ≦0.05 were considered statistically significant.

[2] = test system: laser-induced CNV in monkeys; assay: Laser-induced choroidal neovascularization in monkeys, fluorescein angiography lesion grading; format: in vivo, cynomolgus monkeys (Macaca fascicularis); conditions: for Incidence of CNV lesions, Lesion Grade I (% Total) / Incidence of CNV lesions, Lesion Grade II (% Total) / Incidence of CNV lesions, Lesion Grade III (% Total) / Incidence of CNV lesions, Lesion Grade IV (% Total): intravitreal, both eyes, days 1 and 15, 1.5 mg/eye (Lucentis 0.5 mg/eye); for Overall grade IV lesions versus vehicle control group: all time points together, Chi square test; for Incidence of grade IV lesions compared to vehicle control: days 22, 29 and 37, 1.5 mg/eye in oil formulation; for Overall Grade IV lesions (%): days 22, 29 and 37 summed, 1.5 mg/eye intravitreal days 1 and 15
Method: Study was performed in three phases. In phases Ia and Ib, the behavior of the suspension in aqueous (Ia) and oil (Ib) formulations, and multiple dosing regimens as well as any adverse effect due to multiple dosing at 3 mg/eye (Ia) or 1.5 (Ib) were investigated. In phase II test articles were administered twice during the study period on days 1 and 15. Eyes were examined with an indirect ophthalmoscope and fundus camera.
Adult male cynomolgus monkeys (Macaca fascicularis) age 2-7 years old were used to test the efficacy of BOL-303050-X, BOL-303054-X and BOL-303055-X. Lucentis® (ranibizumab) was used as historic control.
Both eyes of 46 monkeys were examined at baseline and then 42 animals were randomized into 5 groups. On Phase II Day 8 of Dosing, the animals were anesthetized with ketamine and dexmedetomidine and the macula of each eye of the animals in Groups 1 through […] underwent laser treatment by a retinal surgeon with a 532 nm diode green laser (OcuLight GL, IRIDEX Corp. Inc., Mountain View, Calif.) using a slit lamp delivery system and a Kaufman-Wallow (Ocular Instruments Inc, Bellevue, Wash.) plano fundus contact lens with Gonak (2.5%) as the coupling agent. Nine laser spot areas were symmetrically placed in the macula of each eye. The laser parameters included a 75 micron spot size and 0.1 second duration. The power setting used was assessed by the ability to produce a blister and a small hemorrhage. […] For areas not adjacent to the fovea, the initial power setting was 500 mW; if a second spot was placed, the power was set to 650 mW. For the area adjacent to the fovea the power settings were 400 mW (initial treatment) and 550 mW (second treatment). At the discretion of the retinal surgeon, power settings were adjusted based on observations at the time of laser. Power setting used for each spot was documented as well as number of burns per spot and whether hemorrhage occurred.
Once the phase Ib study was completed, and it was established that the drug suspension in oil would not interfere with either laser administration, evaluation of CNV or cause adverse effects, phase II was initiated. On days 1, and 15 both eyes of monkeys received 50 μL of Lucentis (0.5 mg/eye), vehicle (0 mg/eye), BOL-303050-X (1.5 mg/eye), BOL-303054-X (1.5 mg/eye) or BOL-303055-X (1.5 mg/eye) (Table 2). Intravitreous injection was performed for each by eye aiming towards mid-vitreous body. Dosing in the right eye was alternated for successive doses (as applicable) at approximately the 11 o'clock and 10 o'clock positions. Dosing in the left eye was alternated for successive doses (as applicable) from approximately the 1 o'clock and 2 o'clock positions.
Animals were anesthetized with ketamine and dexmedetomidine. A topical anesthetic (0.5% proparacaine) was instilled in each eye before dose administration. A wire speculum was used to retract the eyelids. The eyes were cleaned with a 2.5% povidone iodine solution and then rinsed with sterile saline. Each animal was dosed using 1 cc tuberculin syringes and 30 gauge needles.
FA was performed at baseline, on days 22, 29 and 37 (approximately 14, 21 and 28 days post-laser). Digital ocular photographs were taken in conjunction with FA. The FA procedure is well known by people skilled in the art of ophthalmology.
Evaluation of FA was done according to the following grading system for evidence of excessive permeability (fluorescein leakage) or any other abnormalities.
Grade IV lesions are considered to be clinically significant as these most closely resemble the active forms of classical CNV seen in various human retinal disorders, including age-related macular degeneration. Comparison of the incidence of Grade IV lesions between treatment groups was evaluated.
Grade IV lesions were analyzed using either Fisher's exact probability test (2-Tail) or Chi square test (χ2). […]

Compound | CNV area / development of CNV on isolectin IB4-labeled flat mounts compared to vehicle-treated controls [1] | Mean score of fluorescein leakage (FA score) compared to vehicle-treated controls [1] | Number of lesions in FA grade 1 [1] | Number of lesions in FA grade 2 [1] | Number of lesions in FA grade 3 [1] | Number of lesions in FA grade 4 [1] | Incidence of CNV lesions, Lesion Grade I (% Total) ([2]; Day 22) | Incidence of CNV lesions, Lesion Grade II (% Total) ([2]; Day 22) | Incidence of CNV lesions, Lesion Grade III (% Total) ([2]; Day 22) | Incidence of CNV lesions, Lesion Grade IV (% Total) ([2]; Day 22) | Incidence of CNV lesions, Lesion Grade I (% Total) ([2]; Day 29) | Incidence of CNV lesions, Lesion Grade II (% Total) ([2]; Day 29) | Incidence of CNV lesions, Lesion Grade III (% Total) ([2]; Day 29) | Incidence of CNV lesions, Lesion Grade IV (% Total) ([2]; Day 29) | Incidence of CNV lesions, Lesion Grade I (% Total) ([2]; Day 37) | Incidence of CNV lesions, Lesion Grade II (% Total) ([2]; Day 37) | Incidence of CNV lesions, Lesion Grade III (% Total) ([2]; Day 37) | Incidence of CNV lesions, Lesion Grade IV (% Total) ([2]; Day 37) | Overall grade IV lesions versus vehicle control group [2] | Incidence of grade IV lesions compared to vehicle control [2] | other results
COc1ccc(S(=O)(=O)N[C@@H](CNc2nc(C)nc(N3CCC(c4ccc5c(n4)NCCC5)CC3)c2C)C(=O)O)cc1 [BOL-303050-X] | completely inhibited in a small portion of lesions; also recorded: smaller area of CNV | smaller means | 6 | 12 | 4 | 2 | 126:148 (85.14) % | 12:148 (8.11) % | 4:148 (2.70) % | 4.05% and 6:148 (4.05) % | 132:150 (88.00) % | 11:150 (7.33) % | 3:150 (2.00) % | 2.67% and 4:150 (2.67) % | 136:162 (83.95) % | 15:162 (9.26) % | 8:162 (4.94) % | 1.85% and 3:162 (1.85) % | significantly reduced | reduced compared to vehicle-treated eyes | Overall Grade IV lesions (%) [2]: (2.83)* %
COc1c(NC[C@H](NC(=O)OCc2ccccc2)C(=O)O)ncnc1N1CCC(c2ccc3c(n2)NCCC3)CC1 [BOL-303054-X] |  |  | 0 | 0 | 5 | 1 | 79:133 (59.40) % | 1:133 (0.75) % | 8:133 (6.01) % | 45:133 (33.83) % | 80:133 (60.15) % | 5:133 (3.76) % | 2:133 (1.50) % | 46:133 (34.59) % | 83:136 (61.03) % | 6:136 (4.41) % | 5:136 (3.68) % | 41:136 (30.15) % | not statistically significant | higher incidences of grade IV lesions compared to the vehicle control | Overall Grade IV lesions (%) [2]: (32.84) %
CCc1nc(NC[C@H](NC(=O)OCc2ccccc2)C(=O)O)c(C)c(N2CCC(c3ccc4c(n3)NCCC4)CC2)n1 [BOL-303055-X] | smaller area of CNV | smaller means | 0 | 3 | 2 | 1 | 73:162 (45.06) % | 6:162 (3.7) % | 6:162 (3.70) % | 47.53% and 77:162 (47.53) % | 75:162 (46.3) % | 5:162 (3.09) % | 12:162 (7.41) % | 43.21% and 70:162 (43.21) % | 80:162 (49.38) % | 7:162 (4.32) % | 5:162 (3.68) % | 44.44% and 72:162 (44.44) % | significantly increased | higher incidences of grade IV lesions compared to the vehicle control | Overall Grade IV lesions (%) [2]: (45.06)* %
bevacizumab [Avastin, reference compound] | did not inhibit the development of CNV | smaller means |  | 7 |  | 15 |  |  |  |  |  |  |  |  |  |  |  |  |  |  | 
